Measurements published in patent US20230310559A1, “Use of Amylase or Maltose to Treat or Prevent Neurodegeneration” (St. Jude Children's Research Hospital, Inc., priority 2020, published 2023).
“Also recorded” adds a separate entry of the source.

Key:
Assay type in all cases: cell-based
[1] = test system: human cortical brain organoids; assay: Whole-mount immunostaining of human cortical brain organoids (p62, poly-ubiquitin)
Description: Whole-Mount Immunostaining of Human Cortical Brain Organoids. Similar to the above-referenced procedures described for Drosophila tissues, human cortical brain organoids were immunostained with the following modifications: fixation and washes were done with 0.4% TRITON⋅ X-100; fixation was carried out for 50 minutes at room temperature; and organoids were blocked for >1 hour with PBS with 0.4% TRITON X-100 and 5% bovine serum albumin (BSA) before incubation with primary antibodies.
(§1) Drug Treatment of Human Cortical Brain Organoids. An additional 0.5 mL of culture medium was added to reach the final amount of 1 mL with 0, 3, 5, 10, 20, 40, or 80 mg of maltose per mL, or with 10, 20, 40 μL of porcine alpha-Amylase (MP Biomedicals) per mL, as indicated. After culturing at 37° C. for 3 days, the organoids were kept for 7 hours at 41.5° C. for heat shock, or at 37° C. (control). Subsequently, the organoids were collected and snap frozen. The organoids were then processed as described above for the western blot analysis of detergent-soluble and detergent-insoluble fractions.
Whole-mount immunostaining of organoids was carried out following similar procedures as described above for Drosophila brains and retinas, with anti-poly-ubiquitin (FK2; Enzo Life Sciences) and anti-p62/SQSTM1 antibodies (Cell Signaling Technologies). […]

[2] = test system: human cortical brain organoids; assay: RNA-sequencing of human cortical brain organoids
Description: RNA-Sequencing of Human Cortical Brain Organoids. RNA sequencing libraries for each sample were prepared with 1 μg total RNA using the Illumina TRUSEQ® RNA Sample Prep v2 Kit per the manufacturer's instructions, and sequencing was completed on the Illumina HiSeq 2000. The 100 bp paired-end reads were trimmed, filtered against quality (Phred-like Q20 or greater) and length (50 bp or longer), and aligned to a human reference sequence GRCh38 (UCSC hg38), using CLC Genomics Workbench v12.0.1 (Qiagen). For gene expression comparisons, the TPM (transcript per million) counts were obtained from the RNA-Seq Analysis tool. A total of 19749 genes with TPM greater than one in at least one sample were in the principal component analysis (PCA) and the gene expression analysis was performed using the non-parametric ANOVA using the Kruskal-Wallis and Dunn's tests on log-transformed TPM counts between three replicates of each experimental group, implemented in Partek Genomics Suite v7.0 software (Partek Inc.).
as §1

[3] = test system: human cortical brain organoids; assay: Multielectrode array recording of human cortical brain organoids
Description: Multielectrode Array Recording of Human Cortical Brain Organoids. Spontaneous neuronal activity of cortical organoids was recorded on the Axion Maestro Edge multielectrode array system. Two different methods for plating and recording were optimized from two-month old and three-month old organoids, to ensure maximum contact with electrodes. Method 1 (Two-month old cortical organoids; Maltose treatment): Growth factor reduced-cell culture matrix sold under the tradename […]® (Corning) was diluted 1:3 in chilled media containing BrainPhys and 10% ES-FBS and kept on ice. D60 cortical organoids were first sliced in half using a pair of fine tweezers. Each half was then plated onto one well of a 24-well Cytoview plate (Axion Biosystems), where each well contained a grid of 16 electrodes. After placing the organoid slice onto a dry and empty well using a sterile flat spatula, 15 μL of the chilled and diluted cell culture matrix sold under the tradename […]® was added onto the slice. A P10 tip was used to position the slice to the center of the well over the grid of electrodes. Three such plates were prepared. The plates were incubated at 37° C. for 3 hours for the cell culture matrix to solidify over the organoid slices. After 3 hours, 500 μL of BrainPhys media supplemented with 100× N2 supplement, 50× B27 supplement without Vitamin A, 10 ng/ml BDNF and 10 ng/ml GDNF were added slowly to each well. Every three days, 300 μL media in each well was replaced with fresh media three days and six days after plating. Seven days after plating, the plates were treated with either control or maltose containing media; all treatment conditions were included in each of the four plates. Three days after treatment, spontaneous activity was recorded from each plate. The plates were then subjected to heat shock for 7 hours at 41.5° C. Spontaneous activity in each plate was recorded again after the heat shock. This recording was repeated after 17 hours of recovery and after 43 hours of recovery. Data was analyzed using the Neural Metric tool (Axion Biosystems).

[4] = after heat shock, compared to control-treated organoids

OC[C@H]1O[C@H](O[C@H]2[C@H](O)[C@@H](O)C(O)O[C@@H]2CO)[C@H](O)[C@@H](O)[C@@H]1O (mixture of isomers) [maltose]
p62 and ubiquitin immunoreactivity ([1]; heat-shocked organoids, compared to controls): significantly decreased
levels of p62 and poly-ubiquitinated proteins (immunostaining) ([1]; organoids, control conditions (no heat shock)): no change
expression of gene clusters involved in protein quality control (proteasome components, proteases/peptidases) ([2]; human cortical brain organoids): promoted the expression
gene expression changes induced by heat shock (RNA-seq) ([2]; human cortical brain organoids): prevented some of the gene expression changes
mRNA and proteins levels of CRYA (a-crystallin) ([2]; human cortical organoids): increased
bursts [3, 4]: more bursts
number of active electrodes [3, 4]: higher number of active electrodes
number of bursting electrodes [3, 4]: higher number of bursting electrodes
number of spikes [3, 4]: higher number of spikes
neuronal activity (number of active electrodes, bursting electrodes, network bursts) ([3]; immediately after and at 17 hours and 43 hours after heat shock): significantly preserved; also recorded: higher neuronal activity
levels of maltose effective in preserving neuronal activity ([3]; organoids after heat shock): ≤ 5 mg/mL
neuronal activity (number of active electrodes, bursting electrodes, network bursts) ([3]; steady state / pre-heat shock): not modulated
